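All cell lines were grown in 96-well plates and treated with compound for 48 hours. Abbreviation: GI50, concentration required for 50% inhibition of growth. Definition used: TGI = concentration required for complete inhibition of growth.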
How the values were obtained:
Assay in all cases: NCI-60 cell line screen, 48 h
COLO 205 colon = system: COLO 205 colon
SF-539 CNS = system: SF-539 CNS
SF-295 CNS = system: SF-295 CNS
HS 578T breast = system: HS 578T breast
UACC-62 melanoma = system: UACC-62 melanoma
HCT-116 colon = system: HCT-116 colon
SN12C renal = system: SN12C renal
T-47D breast = system: T-47D breast
OVCAR-3 ovarian = system: OVCAR-3 ovarian
CAKI-1 renal = system: CAKI-1 renal
SK-MEL-28 melanoma = system: SK-MEL-28 melanoma
MOLT-4 leukemia = system: MOLT-4 leukemia
ACHN renal = system: ACHN renal
HOP-62 NSCLC = system: HOP-62 NSCLC
NCI-H226 lung = system: NCI-H226 lung
OVCAR-4 ovarian = system: OVCAR-4 ovarian
RXF 393 renal = system: RXF 393 renal
EKVX NSCLC = system: EKVX NSCLC
OVCAR-8 ovarian = system: OVCAR-8 ovarian
K-562 leukemia = system: K-562 leukemia
PC-3 prostate = system: PC-3 prostate
SW-620 colon = system: SW-620 colon
A498 renal = system: A498 renal
OVCAR-5 ovarian = system: OVCAR-5 ovarian
CCRF-CEM leukemia = system: CCRF-CEM leukemia
SK-OV-3 ovarian = system: SK-OV-3 ovarian
NCI-H522 lung = system: NCI-H522 lung
SF-268 CNS = system: SF-268 CNS
HL-60(TB) leukemia = system: HL-60(TB) leukemia
MDA-MB-435 = system: MDA-MB-435
NCI-H460 lung = system: NCI-H460 lung
SR leukemia = system: SR leukemia
BT-549 breast = system: BT-549 breast
HCC-2998 colon = system: HCC-2998 colon
UO-31 renal = system: UO-31 renal
NCI-H23 lung = system: NCI-H23 lung
DU-145 prostate = system: DU-145 prostate
HT29 colon = system: HT29 colon
A549 NSCLC = system: A549 NSCLC
786-0 renal = system: 786-0 renal
RPMI-8226 leukemia = system: RPMI-8226 leukemia
NCI/ADR-RES ovarian = system: NCI/ADR-RES ovarian
M14 melanoma = system: M14 melanoma
IGROV1 ovarian = system: IGROV1 ovarian
HCT-15 colon = system: HCT-15 colon
U251 CNS = system: U251 CNS
MCF7 breast = system: MCF7 breast
MALME-3M melanoma = system: MALME-3M melanoma
SNB-19 CNS = system: SNB-19 CNS
KM12 colon = system: KM12 colon
TK-10 renal = system: TK-10 renal

COc1ccc(-c2ccc(/C=N/n3c(COc4ccc(Cl)c(C)c4)nn(CN4CCOCC4)c3=S)o2)c([N+](=O)[O-])c1
GI50 (COLO 205 colon): 39.8 µM | TGI (COLO 205 colon): > 100 µM | GI50 (SF-539 CNS): 22 µM | TGI (SF-539 CNS): 53.9 µM | GI50 (SF-295 CNS): 18.6 µM | TGI (SF-295 CNS): 46.6 µM | GI50 (HS 578T breast): 37.8 µM | TGI (HS 578T breast): > 100 µM | GI50 (UACC-62 melanoma): 30.8 µM | TGI (UACC-62 melanoma): > 100 µM | GI50 (HCT-116 colon): 17.6 µM | TGI (HCT-116 colon): 34.3 µM | GI50 (SN12C renal): 21.3 µM | TGI (SN12C renal): 48.1 µM | GI50 (T-47D breast): 44.1 µM | TGI (T-47D breast): > 100 µM | GI50 (OVCAR-3 ovarian): 17.3 µM | TGI (OVCAR-3 ovarian): 44.8 µM | GI50 (CAKI-1 renal): 23.6 µM | TGI (CAKI-1 renal): 57.1 µM | GI50 (SK-MEL-28 melanoma): 20.5 µM | TGI (SK-MEL-28 melanoma): 53.7 µM | GI50 (MOLT-4 leukemia): 21.8 µM | TGI (MOLT-4 leukemia): 70.1 µM | GI50 (ACHN renal): 39.1 µM | TGI (ACHN renal): > 100 µM | GI50 (HOP-62 NSCLC): 38.6 µM | TGI (HOP-62 NSCLC): > 100 µM | GI50 (NCI-H226 lung): > 100 µM | TGI (NCI-H226 lung): > 100 µM | GI50 (OVCAR-4 ovarian): 31.9 µM | TGI (OVCAR-4 ovarian): 76.7 µM | GI50 (RXF 393 renal): 19.1 µM | TGI (RXF 393 renal): 52.7 µM | GI50 (EKVX NSCLC): 26.4 µM | TGI (EKVX NSCLC): > 100 µM | GI50 (OVCAR-8 ovarian): 33.5 µM | TGI (OVCAR-8 ovarian): > 100 µM | GI50 (K-562 leukemia): 20.4 µM | TGI (K-562 leukemia): 51.7 µM | GI50 (PC-3 prostate): 17.7 µM | TGI (PC-3 prostate): 51.1 µM | GI50 (SW-620 colon): 19.9 µM | TGI (SW-620 colon): 48.9 µM | GI50 (A498 renal): 12.4 µM | TGI (A498 renal): 25.7 µM | GI50 (OVCAR-5 ovarian): 33.2 µM | TGI (OVCAR-5 ovarian): > 100 µM | GI50 (CCRF-CEM leukemia): 19.3 µM | TGI (CCRF-CEM leukemia): 56.2 µM | GI50 (SK-OV-3 ovarian): 34.4 µM | TGI (SK-OV-3 ovarian): > 100 µM | GI50 (NCI-H522 lung): 25.5 µM | TGI (NCI-H522 lung): > 100 µM | GI50 (SF-268 CNS): 33.8 µM | TGI (SF-268 CNS): > 100 µM | GI50 (HL-60(TB) leukemia): 24.1 µM | TGI (HL-60(TB) leukemia): 50.9 µM | GI50 (MDA-MB-435): 21 µM | TGI (MDA-MB-435): 49.5 µM | GI50 (NCI-H460 lung): 18.5 µM | TGI (NCI-H460 lung): 55.8 µM | GI50 (SR leukemia): 26.3 µM | TGI (SR leukemia): 72.1 µM | GI50 (BT-549 breast): 34.6 µM | TGI (BT-549 breast): 85 µM | GI50 (HCC-2998 colon): 16.5 µM | TGI (HCC-2998 colon): 32.5 µM | GI50 (UO-31 renal): 28.8 µM | TGI (UO-31 renal): > 100 µM | GI50 (NCI-H23 lung): 20.2 µM | TGI (NCI-H23 lung): 51.6 µM | GI50 (DU-145 prostate): 38 µM | TGI (DU-145 prostate): > 100 µM | GI50 (HT29 colon): 21.6 µM | TGI (HT29 colon): 51.2 µM | GI50 (A549 NSCLC): 19.3 µM | TGI (A549 NSCLC): 96.8 µM | GI50 (786-0 renal): 32.5 µM | TGI (786-0 renal): > 100 µM | GI50 (RPMI-8226 leukemia): 12.5 µM | TGI (RPMI-8226 leukemia): 34.9 µM | GI50 (NCI/ADR-RES ovarian): 27.6 µM | TGI (NCI/ADR-RES ovarian): > 100 µM | GI50 (M14 melanoma): 25.7 µM | TGI (M14 melanoma): 66.6 µM | GI50 (IGROV1 ovarian): 40.3 µM | TGI (IGROV1 ovarian): > 100 µM | GI50 (HCT-15 colon): 30.7 µM | TGI (HCT-15 colon): > 100 µM | GI50 (U251 CNS): 30.5 µM | TGI (U251 CNS): > 100 µM | GI50 (MCF7 breast): > 100 µM | TGI (MCF7 breast): > 100 µM | GI50 (MALME-3M melanoma): 17.9 µM | TGI (MALME-3M melanoma): 43.1 µM | GI50 (SNB-19 CNS): 41.2 µM | TGI (SNB-19 CNS): > 100 µM | GI50 (KM12 colon): 29.1 µM | TGI (KM12 colon): > 100 µM | GI50 (TK-10 renal): 16.5 µM | TGI (TK-10 renal): 50.5 µM
